Assay results reported in publication PMC11855212 (2025).

Legend:
[1] = test system: RB IM (RB promoter i-motif) (DNA, i motif) GCCGCCCAAAACCCCCCG; test: CD melting; conditions: 100 mM K+; BPES buffer (pH 5.5 per i-motif experiments); 2 μM DNA; compound concentration not in material
[2] = test system: c-jun IM (DNA, i motif) TAACCCCCTCCCCCTCCCCCCTTTAAT; test: SPR; conditions: 100 mM K+; 20 mM MES, pH 5.5, 25 °C
[3] = test system: RB G4 (RB promoter G-quadruplex) (DNA, G4) CGGGGGGTTTTGGGCGGC; test: CD melting; conditions: 100 mM K+; 50 mM Tris-HCl, pH 7.4; 2 μM DNA; compound concentration not in material
[4] = test system: RB IM (RB promoter i-motif) (DNA, i motif) GCCGCCCAAAACCCCCCG; test: SPR; conditions: 100 mM K+; 20 mM MES, pH 5.5, 25 °C
[5] = test system: RET G4 (DNA, G4) GGGGCGGGGCGGGGGGGGG; test: SPR; conditions: 100 mM K+; 50 mM Tris-HCl, pH 7.4, 25 °C
[6] = test system: ACC2 G4 (DNA, G4) GGGGCGGGGCGGGGGCGGG; test: SPR; conditions: 100 mM K+; 50 mM Tris-HCl, pH 7.4, 25 °C
[7] = test system: hairpin (DNA, hairpin) CGCGCGCGTTTTCGCGCGCG; test: SPR; conditions: 25 °C; highest concentration not stated
[8] = test system: ACC2 IM (DNA, i motif) TGACCCGCCCCCGCCCCGCCCCTGT; test: SPR; conditions: 100 mM K+; 20 mM MES, pH 5.5, 25 °C
[9] = test system: RB promoter G-quadruplex, 5'-FAM (DNA, G4) CGGGGGGTTTTGGGCGGC; test: MST; conditions: 100 mM K+; 50 mM Tris-HCl, pH 7.4, 25 °C
[10] = test system: RB promoter i-motif, 5'-FAM (DNA, i motif) GCCGCCCAAAACCCCCCG; test: MST; conditions: 100 mM K+; 20 mM MES, pH 5.5, 25 °C
[11] = test system: c-jun G4 (DNA, G4) AAGGGGGGAGGGGGAGGGGGTT; test: SPR; conditions: 100 mM K+; 50 mM Tris-HCl, pH 7.4, 25 °C
[12] = test system: RB G4 (RB promoter G-quadruplex) (DNA, G4) CGGGGGGTTTTGGGCGGC; test: TO displacement fluorescence; conditions: 100 mM K+; 50 mM Tris-HCl, pH 7.4, 25 °C; 1 μM DNA; thiazole orange (TO) displaced
[13] = test system: RB IM (RB promoter i-motif) (DNA, i motif) GCCGCCCAAAACCCCCCG; test: TO displacement fluorescence; conditions: 100 mM K+; BPES buffer, pH 5.5, 25 °C; 1 μM DNA; thiazole orange (TO) displaced
[14] = test system: kras G4 (DNA, G4) AGGGCGGTGTGGGAAGAGGGAAGAGGGGGAGG; test: SPR; conditions: 100 mM K+; 50 mM Tris-HCl, pH 7.4, 25 °C
[15] = test system: RB IM, 5'-biotin (SPR) (DNA, i motif) GCCGCCCAAAACCCCCCG; test: SPR; conditions: 100 mM K+, 20 mM MES, pH 5.5, 25 °C
[16] = test system: hairpin (DNA, hairpin) CGCGCGCGTTTTCGCGCGCG; test: SPR; conditions: buffer for hairpin not stated

| ΔTm [1] [°C] | KD [2] [µM] | ΔTm [3] [°C] | KD [4] [µM] | KD [5] [µM] | KD [6] [µM] | KD [7] [µM] | KD [8] [µM] | KD [9] [µM] | KD [10] [µM] | KD [11] [µM] | DC50 [12] [µM] | DC50 [13] [µM] | KD [14] [µM] | KD ([15]; unit not printed in Table S2, μM in text) [µM] | KD [16] [µM] | KD ([15]; Table S2 prints 9.24) [µM] | SMILES |
| --- | --- | --- | --- | --- | --- | --- | --- | --- | --- | --- | --- | --- | --- | --- | --- | --- | --- |
| −10.7 | 27.0 | −6.4 | 2.44 | 30.9 | 53.1 | > 50 | 41.7 | 2.50 ± 0.65 | 0.43 ± 0.24 | 43.9 | 2.7 | 3.4 | 32.5 | – | – | – | CN(CCCNc1c2ccccc2nc2ccccc12)CCCNc1c2ccccc2nc2ccccc12 |
| – | – | – | 36.7 | – | – | – | – | – | – | – | – | – | – | 36.7 | – | – | C[n+]1c(/C=C/c2c3ccccc3cc3ccccc23)ccc2ccccc21 |
| – | – | −9.9 | – | – | – | – | – | 0.50 ± 0.27 | 18.06 ± 5.28 | – | – | – | – | – | > 50 | 13.6 | Cc1ccc2nc3ccccc3c(NCCNCCNc3c4ccccc4nc4ccc(C)cc34)c2c1 |
